Experimental data from patent US8207156B2, “Substituted pyrazoline compounds, their preparation and use as medicaments” (Laboratorios Del Dr. Esteve, S.A., priority 2005, dated 2012).
Structures can show the parent of a compound that is named as a salt.

molecular target: recombinant human cannabinoid 1 receptor (CB1) (Homo sapiens, UniProt P21554); experiment: In vitro determination of antagonism to CB1-receptor ([35S]GTPγS binding assay, CHO cell membranes); type: biochemical; details: compound at 1 μM against agonist WIN 55,212-2 (3 nM to 3 μM); effect of Rimonabant (1 μM) defined as 100%
Procedure: Chinese hamster ovary (CHO) cells stably expressing recombinant human cannabinoid 1 receptor (CB1) were cultured in nutrient mixture Ham's F 12 supplemented with 10% heat-inactivated fetal bovine serum, 2 mM L-glutamine, 50 U/ml penicillin, 50 U/ml streptomycin and 0.5 mg/ml geneticin. In order to obtain cells, culture flasks were washed twice with phosphate buffered saline and scraped. Then, cells were collected by centrifugation (200×g, 10 min) and stored dry at −80° C. Cells were homogenized in ice-cold 20 mM HEPES, 10 mM EDTA (pH 7.5) and centrifuged at 40,000×g for 15 min at 4° C. The membrane pellet was resuspended in 20 mM HEPES, 0.1 mM EDTA (pH 7.5) and centrifuged for 15 min at 4° C. The final membrane pellet was resuspended in 20 mM HEPES, 0.1 mM EDTA (pH 7.5), and divided in aliquots and stored at −80° C. until use.
The reaction was performed in 96-well plates. Membranes (15 μg protein/well) were incubated for 60 min at 30° C. in buffer (50 mM HEPES, 100 mM KCl, 5 mM MgCl2,1 mM EDTA, 0.1% wt/vol bovine serum albumin, 5 μM GDP, saponin (10 μg/ml), 0.5 nM [^35S]GTPγS, pH 7.4) with compound at a final concentration of 1 μM in either the absence or presence of agonist WIN 55, 212-2 between 3 nM and 3 μM. The incubation was terminated by rapid filtration through Millipore Multiscreen glass fiber FB, and rinsed two-times with ice-cold assay buffer. Filter plates were dried and 30 μl of scintillation liquid was added. Radioactivity was determined using a Wallac Microbeta Trilux. Each experiment was performed at least in duplicate. A WIN 55, 212-2 dose-response experiment either alone or in the presence of Rimonabant (1 μM) was systematically performed.
The average of basal [^35S]GTPγS binding was subtracted from all binding data. In order to compare the antagonism results from one screening campaign to another one, the difference between the maximal agonist effect of WIN 55, 212-2 alone, and the maximal antagonism effect due to WIN 55, 212-2 plus Rimonabant (1 μM) was defined as 100%.

Chain of recombinant human cannabinoid 1 receptor (CB1) (P21554 whole entry): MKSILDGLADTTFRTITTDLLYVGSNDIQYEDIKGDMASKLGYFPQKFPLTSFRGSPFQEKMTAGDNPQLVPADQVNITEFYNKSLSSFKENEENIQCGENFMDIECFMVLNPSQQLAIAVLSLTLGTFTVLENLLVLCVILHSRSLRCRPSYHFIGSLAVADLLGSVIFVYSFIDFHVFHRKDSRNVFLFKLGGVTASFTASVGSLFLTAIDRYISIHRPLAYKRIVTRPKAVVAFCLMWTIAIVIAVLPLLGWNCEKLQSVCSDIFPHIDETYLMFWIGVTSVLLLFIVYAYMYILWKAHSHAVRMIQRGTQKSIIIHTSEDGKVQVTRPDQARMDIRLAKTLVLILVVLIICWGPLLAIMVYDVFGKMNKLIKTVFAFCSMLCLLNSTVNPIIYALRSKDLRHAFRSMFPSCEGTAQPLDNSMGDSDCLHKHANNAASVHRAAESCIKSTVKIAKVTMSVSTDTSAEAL

Antagonism [%]	Compound
2	CCN(C(=O)C1=NN(c2ccc(Cl)cc2Cl)C(c2ccc(Cl)cc2)C1)C1CCCCC1 (stereo not shown) [Example 33, 5-(4-Chloro-phenyl)-1-(2,4-dichloro-phenyl)-4,5-dihydro-1H-pyrazole-3-carboxylic acid cyclohexyl-ethyl-amide]
60	O=C(NC1CCCCCCC1)C1=NN(c2ccc(Cl)cc2Cl)C(c2ccc(Cl)cc2)C1 (stereo not shown) [Example 34, 5-(4-Chloro-phenyl)-1-(2,4-dichloro-phenyl)-4,5-dihydro-1H-pyrazole-3-carboxylic acid cyclooctylamide]
−5	O=C(NC1CC1)C1=NN(c2ccc(Cl)cc2Cl)C(c2ccc(Cl)cc2)C1 (stereo not shown) [Example 36, 5-(4-Chloro-phenyl)-1-(2,4-dichloro-phenyl)-4,5-dihydro-1H-pyrazole-3-carboxylic acid cyclopropylamide]
45	O=C(C1=NN(c2ccc(Cl)cc2Cl)C(c2ccc(Cl)cc2)C1)N1CCCCCCC1 (stereo not shown) [Example 38, Azocan-1-yl-[5-(4-chloro-phenyl)-1-(2,4-dichloro-phenyl)-4,5-dihydro-1H-pyrazol-3-yl]-methanone]
62	O=C(C1=NN(c2ccc(Cl)cc2Cl)C(c2ccc(Cl)cc2)C1)N1Cc2ccccc2C1 (stereo not shown) [Example 39, [5-(4-Chloro-phenyl)-1-(2,4-dichloro-phenyl)-4,5-dihydro-1H-pyrazol-3-yl]-(1,3-dihydro-isoindol-2-yl)-methanone]
−13	O=C(C1=NN(c2ccc(Cl)cc2Cl)C(c2ccc(Cl)cc2)C1)N1CCC(N2CCCCC2)CC1 (stereo not shown) [Example 42, [1,4′]Bipiperidinyl-1′-yl-[5-(4-chloro-phenyl)-1-(2,4-dichloro-phenyl)-4,5-dihydro-1H-pyrazol-3-yl]-methanone]
25	CN1CCN(C(=O)C2=NN(c3ccc(Cl)cc3Cl)C(c3ccc(Cl)cc3)C2)CC1 (stereo not shown) [Example 43, [5-(4-Chloro-phenyl)-1-(2,4-dichloro-phenyl)-4,5-dihydro-1H-pyrazol-3-yl]-(4-methyl-piperazin-1-yl)-methanone]
39	CCOC(=O)N1CCN(C(=O)C2=NN(c3ccc(Cl)cc3Cl)C(c3ccc(Cl)cc3)C2)CC1 (stereo not shown) [Example 44, 4-[5-(4-Chloro-phenyl)-1-(2,4-dichloro-phenyl)-4,5-dihydro-1H-pyrazole-3-carbonyl]-piperazine-1-carboxylic acid ethyl ester]
28	CN(C(=O)C1=NN(c2ccc(Cl)cc2Cl)C(c2ccc(Cl)cc2)C1)C1CCCCC1 (stereo not shown) [Example 47, 5-(4-Chloro-phenyl)-1-(2,4-dichloro-phenyl)-4,5-dihydro-1H-pyrazole-3-carboxylic acid cyclohexyl-methyl-amide]
14	O=C(O)[C@@H]1CCCN1C(=O)C1=NN(c2ccc(Cl)cc2Cl)C(c2ccc(Cl)cc2)C1 (stereo partly shown) [Example 53, 1-[5-(4-Chloro-phenyl)-1-(2,4-dichloro-phenyl)-4,5-dihydro-1H-pyrazole-3-carbonyl]-pyrrolidine-2-carboxylic acid]
46	O=C(C1=NN(c2ccc(Cl)cc2Cl)C(c2ccc(Cl)cc2)C1)N1CCOCC1 (stereo not shown) [Example 54, [5-(4-Chloro-phenyl)-1-(2,4-dichloro-phenyl)-4,5-dihydro-1H-pyrazol-3-yl]-morpholin-4-yl-methanone]
44	O=C(C1=NN(c2ccc(Cl)cc2Cl)C(c2ccc(Cl)cc2)C1)N1CCc2sccc2C1 (stereo not shown) [Example 56, [5-(4-Chloro-phenyl)-1-(2,4-dichloro-phenyl)-4,5-dihydro-1H-pyrazol-3-yl]-(6,7-dihydro-4H-thieno[3,2-c]pyridin-5-yl)-methanone]
47	CC1(C)[C@@H]2CC[C@@]1(C)[C@@H](NC(=O)C1=NN(c3ccc(Cl)cc3Cl)C(c3ccc(Cl)cc3)C1)C2 (stereo partly shown) [Example 58, 5-(4-Chloro-phenyl)-1-(2,4-dichloro-phenyl)-4,5-dihydro-1H-pyrazole-3-carboxylic acid (1,7,7-trimethyl-bicyclo[2.2.1]hept-2-yl)-amide]
60	CCC1CCC(C)N(C(=O)C2=NN(c3ccc(Cl)cc3Cl)C(c3ccc(Cl)cc3)C2)C1 (stereo not shown) [Example 59, [5-(4-Chloro-phenyl)-1-(2,4-dichloro-phenyl)-4,5-dihydro-1H-pyrazol-3-yl]-(5-ethyl-2-methyl-piperidin-1-yl)-methanone]
75	O=C(NN1CCCC1)C1=NN(c2ccc(Cl)cc2Cl)C(c2ccc(Br)cc2)C1 (stereo not shown) [Example 61, 5-(4-Bromo-phenyl)-1-(2,4-dichloro-phenyl)-4,5-dihydro-1H-pyrazole-3-carboxylic acid pyrrolidin-1-ylamide]
67	CC1CCCC(C)N1NC(=O)C1=NN(c2ccc(Cl)cc2Cl)C(c2ccc(Br)cc2)C1 (stereo not shown) [Example 62, 5-(4-Bromo-phenyl)-1-(2,4-dichloro-phenyl)-4,5-dihydro-1H-pyrazole-3-carboxylic acid (2,6-dimethyl-piperidin-1-yl)-amide]
52	O=C(NN1CCOCC1)C1=NN(c2ccc(Cl)cc2Cl)C(c2ccc(Br)cc2)C1 (stereo not shown) [Example 67, 5-(4-Bromo-phenyl)-1-(2,4-dichloro-phenyl)-4,5-dihydro-1H-pyrazole-3-carboxylic acid morpholin-4-ylamide]
30	O=C(O)C1=NN(c2ccc(Cl)cc2Cl)C(c2ccc(F)cc2)C1 (stereo not shown) [Example 126, 1-(2,4-Dichloro-phenyl)-5-(4-fluoro-phenyl)-4,5-dihydro-1H-pyrazole-3-carboxylic acid]
18	O=C(O)C1=NN(c2ccc(Cl)cc2Cl)C(c2ccc(Br)cc2)C1 (stereo not shown) [Example 128, 5-(4-Bromo-phenyl)-1-(2,4-dichloro-phenyl)-4,5-dihydro-1H-pyrazole-3-carboxylic acid]

Compound	Antagonism [%]
CCCCCC(C)NC(=O)C1=NN(c2ccc(Cl)cc2Cl)C(c2ccc(Cl)cc2)C1 (stereo not shown) [Example 35, 5-(4-Chloro-phenyl)-1-(2,4-dichloro-phenyl)-4,5-dihydro-1H-pyrazole-3-carboxylic acid (1-methyl-hexyl)-amide]	68
O=C(C1=NN(c2ccc(Cl)cc2Cl)C(c2ccc(Cl)cc2)C1)N1CCC1 (stereo not shown) [Example 40, Azetidin-1-yl-[5-(4-chloro-phenyl)-1-(2,4-dichloro-phenyl)-4,5-dihydro-1H-pyrazol-3-yl]-methanone]	32
O=C(C1=NN(c2ccc(Cl)cc2Cl)C(c2ccc(Cl)cc2)C1)N1CCc2ccccc2C1 (stereo not shown) [Example 45, [5-(4-Chloro-phenyl)-1-(2,4-dichloro-phenyl)-4,5-dihydro-1H-pyrazol-3-yl]-(3,4-dihydro-1H-isoquinolin-2-yl)-methanone]	59
CC1CCCCN1C(=O)C1=NN(c2ccc(Cl)cc2Cl)C(c2ccc(Cl)cc2)C1 (stereo not shown) [Example 46, [5-(4-Chloro-phenyl)-1-(2,4-dichloro-phenyl)-4,5-dihydro-1H-pyrazol-3-yl]-(2-methyl-piperidin-1-yl)-methanone]	53
O=C(NC1CCCCCCCCCCC1)C1=NN(c2ccc(Cl)cc2Cl)C(c2ccc(Cl)cc2)C1 (stereo not shown) [Example 49, 5-(4-Chloro-phenyl)-1-(2,4-dichloro-phenyl)-4,5-dihydro-1H-pyrazole-3-carboxylic acid cyclododecylamide]	14
CC(C)N(C(=O)C1=NN(c2ccc(Cl)cc2Cl)C(c2ccc(Cl)cc2)C1)C(C)C (stereo not shown) [Example 50, 5-(4-Chloro-phenyl)-1-(2,4-dichloro-phenyl)-4,5-dihydro-1H-pyrazole-3-carboxylic acid diisopropylamide]	18
CN(C)C(=O)C1=NN(c2ccc(Cl)cc2Cl)C(c2ccc(Cl)cc2)C1 (stereo not shown) [Example 51, 5-(4-Chloro-phenyl)-1-(2,4-dichloro-phenyl)-4,5-dihydro-1H-pyrazole-3-carboxylic acid dimethylamide]	21
CC(C)N(C(=O)C1=NN(c2ccc(Cl)cc2Cl)C(c2ccc(Cl)cc2)C1)C1CCCCC1 (stereo not shown) [Example 55, 5-(4-Chloro-phenyl)-1-(2,4-dichloro-phenyl)-4,5-dihydro-1H-pyrazole-3-carboxylic acid cyclohexyl-isopropyl-amide]	30

same assay, conditions: compound at 1 μM against agonist WIN 55,212-2 (3 nM to 3 μM); effect of Rimonabant (1 μM) defined as 100%; hydrochloride

Antagonism [%]	Compound
115	O=C(NN1CC2CCCC2C1)C1=NN(c2ccc(Cl)cc2Cl)C(c2ccc(Cl)cc2)C1 (stereo not shown) [Example 193, 5-(4-Chloro-phenyl)-1-(2,4-dichloro-phenyl)-4,5-dihydro-1H-pyrazole-3-carboxylic acid (hexahydro-cyclopenta[c]pyrrol-2-yl)-amide hydrochloride]
